Experiment: Storage coloration test of Elobixibat, additive and their mixtures (visual observation)
Assay type: physicochemical
Text: 1,1-dioxo-3,3-dibutyl-5-phenyl-7-methylthio-8-(N—{(R)-1′-phenyl-1′-[N′-(carboxymethyl)carbamoyl]methyl}carbamoylmethoxy)-2,3,4,5-tetrahydro-1,5-benzothiazepine (Elobixibat) and an additive shown in Table 1 were mixed so that they have a volume ratio of 1:1 based on visual quantities, and thereby, the mixtures according to Reference Examples 3 to 9 were obtained. […] The mixture of each of Reference Examples 3 to 9, only Elobixibat as Reference Example 1, and only Macrogol (polyethylene glycol) 6000 as Reference Example 2 were independently stored in an aluminum bag as an airtight container for 2 weeks under the conditions of 60° C. and 75% relative humidity. After storage, the presence or absence of coloration of the materials of Reference Examples 1 and 2 and the mixtures according to Reference Examples 3 to 9 was visually observed.

With `CCCCC1(CCCC)CN(c2ccccc2)c2cc(SC)c(OCC(=O)N[C@@H](C(=O)NCC(=O)O)c3ccccc3)cc2S(=O)(=O)C1` [Reference Example 1, 1,1-dioxo-3,3-dibutyl-5-phenyl-7-methylthio-8-(N—{(R)-1′-phenyl-1′-[N′-(carboxymethyl)carbamoyl]methyl}carbamoylmethoxy)-2,3,4,5-tetrahydro-1,5-benzothiazepine] the “Coloration after storage: Before storage → after storage” value (colour before and after 2 weeks at 60° C. and 75% relative humidity in aluminum bag) was “white → white” and the Coloration after storage (stored in aluminum bag (airtight container) for 2 weeks at 60° C. and 75% relative humidity, visually observed) was “Not observed”.
